{
  "source": "ChEMBL document CHEMBL1121720",
  "about": "“Future directions in dopaminergic nervous system and dopaminergic agonists” (J Med Chem, 1981)",
  "biological_target": "T1, Renin (Rattus norvegicus) (UniProt P08424)",
  "T1 sequence (whole entry)": "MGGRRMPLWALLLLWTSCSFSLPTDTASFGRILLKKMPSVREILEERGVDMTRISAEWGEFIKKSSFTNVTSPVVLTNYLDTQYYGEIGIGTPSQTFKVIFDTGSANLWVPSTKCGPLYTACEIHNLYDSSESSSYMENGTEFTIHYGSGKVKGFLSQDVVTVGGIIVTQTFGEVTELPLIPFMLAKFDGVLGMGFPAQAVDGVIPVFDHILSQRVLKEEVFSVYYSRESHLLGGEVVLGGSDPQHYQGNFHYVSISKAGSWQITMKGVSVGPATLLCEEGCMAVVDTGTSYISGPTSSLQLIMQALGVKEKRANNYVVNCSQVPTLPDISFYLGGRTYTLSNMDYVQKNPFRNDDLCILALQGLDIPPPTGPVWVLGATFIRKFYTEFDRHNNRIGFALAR",
  "experiment": "Compound was evaluated for its ability to reduce plasma renin activity; Ranges is 20-40",
  "format": "functional, cell-free",
  "design": "scale not given: the % may be the effect or the level left",
  "data": [
    {"smiles": "CC(C)C[C@H]1C(=O)N2CCCC2[C@]2(C)O[C@](NC(=O)C3C=C4c5cccc6[nH]c(Br)c(c56)C[C@H]4N(C)C3)(C(C)C)C(=O)N12", "note": "(stereo partly specified)", "values": [
      {"measurement": "Activity", "value": 20, "unit": "%"}
    ]}
  ]
}
